Measurements: patent publication US6903104B2, “Indol-3-YL-2-oxoacetamide compounds and methods of use thereof” (National Health Research Institutes, priority 2001, dated 2005)

Key:
[1] = tested on: gastric HR cancer cells; assay: In vitro cytotoxicity MTS assay, gastric HR; assay type: cell-based, human; conditions: 72 hours
Method: (§1) A panel of human cancer cells, gastric NUGC3 and HR, nasopharyngeal HONE1, hepatocellular HEP G2 and HA-22T, colorectal DLD1, lung A549, prostate PC3, breast MCF7 and its adriamycin-resistant MCF7/ADR subline, uterus MES-SA and its adriamycin-resistant MES-SA/Dx5 subline, is purchased from Food Industry Research and Development Institute, Hsinchu, Taiwan R.O.C. or American Type Culture Collection, Manassas, Va. U.S.A., are used in in vitro cytotoxicity assays. The human cells are seeded at a cell density of 3000 or 4500 cells/100 μl/well in 96-well flat-bottom plates and incubated for 24 hours at 37° C. in a 5% CO2 incubator. The testing compounds are dissolved in dimethyl sulfoxide (DMSO) and further diluted into the culture medium for treatments of human cancer cells in vitro. The drug-containing media has a final DMSO concentration of ≦0.3%. The compounds of this invention are prepared in culture media for testing at a range of concentrations from 10, 1, 0.1, 0.01 to 0.001 μM. Each compound solution is (200 μl/well in duplicate) in the cell plates and is treated for 72 hours at 37° C., 5% CO2 in an incubator. Actinomycin D at 5 μM and 0.3% DMSO are used as the positive and vehicle controls, respectively. A colorimetric assay using 3-(4,5-dimethylthiazol-2-yl)-5-(3-carboxymethoxyphenyl)-2-(4-sulfophenyl)-2H-tetrazolium (MTS) and phenazine methosulfate (PMS) is used to determine the potency of the compounds. This assay measures cell viability based on the cellular activity in conversion of a tetrazolium salt into a colored soluble formazan product. The optical density (OD) values are measured at 490 nm with a 1420 multilabel counter VICTOR® from Wallac, Turku, Finland. All of the measured values are subtracted with that of the blank control wells without cells before further calculations. The efficacy data are expressed as a percentage normalized to the vehicle controls as calculated in the following formulae. Inhibitory potency (% of vehicle control)=[(OD490compound−OD490blank)/(OD490vehicle−OD490blank)]×100%. The concentration (IC50) of a test compound that inhibits 50% of the cellular activity is determined.

[2] = tested on: rat aorta endothelial cells; assay: Rat aorta tube formation assay (angiogenesis inhibition); assay type: cell-based, Spraque-Dawley rats; design: key: Noninhibitors are indicated by the symbol (−), meaning that the extent of endothelial cell growth is essentially at the same level as that of the control; The most potent inhibitors receive a score of (+++++), indicating essentially no measurable endothelial cell growth; conditions: 5 days
Method: The procedures are modified from previous reports (Burbridge and West 2001; Bauer et al. 2000; Nicosai and Ottinetti 1990a) and described as follows. Male Spraque-Dawley rats of 6-8 weeks old are purchased from the National Laboratory Animal Breeding and Research Center (Taipei, Taiwan). The animals are anesthetized with urethane (2 g/kg, intraperitoneal) and the thoracic aortas are quickly harvested in a laminar flow hood. The aortas are rinsed with ice-cold normal saline with 10 μg/ml gentamicin and the attached fibroadipose tissues are removed using micro-dissection scissors. The aortas are cross-sectioned into rings of 1 mm in thickness. A mixture of Matrigel®, purchased from BD Biosciences, solution and the EBM-II medium, purchased from BioWhittaker Inc., (1:1) with 2% FBS, 0.25 mg/ml, amphotericin B and 10 μg/ml gentamicin is prepared and added at 100 μl to each well of a 48-well plate. The mixture is allowed to gel at 37° C. Aorta rings are then placed onto the gelled matrix and embedded in an additional 150 μl per well of the mixture solution and allowed to gel at 37° C. The aorta rings are then covered with 125 μl of the EGM-II medium and incubated overnight in humidified incubator with 5% CO2/95% air at 37° C. After removal of the EGM-II from the established aorta cultures, the compound-containing media are applied at 300 μl per well to the cultures and then incubated in 5% CO2/95% air at 37° C. for 5 days. The cultures are then subject to the 3-[4,5-dimethylthiazol-2-yl]-2,5 diphenyl-2H-tetrazolium bromide (MTT) or 3-(4,5-dimethylthiazol-2-yl)-5-(3-carbomethoxyphenyl)-2H-tetrazolium (MTS) assay and OD490 nm values measured. The testing compounds are dissolved in dimethyl sulfoxide (DMSO) and prepared in EBM-II media with at a final concentration of DMSO less than 0.1%.
The capillary-like, tube structure of the outgrown rat aorta endothelial cells is easily visualized by MTT staining. The medium on top of the matrix is removed from the established aorta ring cultures. MTT solution of 5 mg/ml in saline is added to the cultures at 100 μl/well and the cultures are incubated in a CO2 incubator at 37° C. for 24 hr. The stained cultures are then examined under a microscope DMIRB from Leica and photos taken with a digital camera.
Inhibition activity is also assessed in the following manner. The reductive reaction of MTS initiated by the viable cellular mitochondrial activity is used as a basis for the measurement of cell viability (Cory et al. 1991; Gieni et al. 1995). To the rat aorta ring cultures 300 μl of a solution containing 100 μg MTS and 1 μg, phenazine methosulfate is added per well and incubated in 5% CO2/95% air at 37° C. for 24 hr. During the incubation, MTS is converted to formazan product. At the end of incubation, the solution overlaying the gel is well-mixed and 100 μl aliquots are transferred into a 96-well plate for measurement of OD490 nm with a spectrophotometer VICTOR™-II from Wallac Oy.
The compounds listed in Table 3 are screened for angiogenesis inhibition. The control compound, ASTA, is D-24851, N-[pyridin-4-yl]-[1-(4-chlorobenzyl)-indol-3-yl]-glyoxylic acid amide. Noninhibitors are indicated by the symbol (−), meaning that the extent of endothelial cell growth is essentially at the same level as that of the control.

[3] = tested on: gastric NUGC3 cancer cells; assay: In vitro cytotoxicity MTS assay, gastric NUGC3; assay type: cell-based, human; conditions: 72 hours
Method: as §1

[4] = tested on: uterus MES-SA cancer cells; assay: In vitro cytotoxicity MTS assay, uterus MES-SA; assay type: cell-based, human; conditions: 72 hours
Method: as §1

[5] = tested on: prostate PC3 cancer cells; assay: In vitro cytotoxicity MTS assay, prostate PC3; assay type: cell-based, human; conditions: 72 hours
Method: as §1

[6] = tested on: hepatocellular HEP G2 cancer cells; assay: In vitro cytotoxicity MTS assay, hepatocellular HEP G2; assay type: cell-based, human; conditions: 72 hours
Method: as §1

[7] = tested on: colorectal DLD1 cancer cells; assay: In vitro cytotoxicity MTS assay, colorectal DLD1; assay type: cell-based, human; conditions: 72 hours
Method: as §1

[8] = tested on: lung A549 cancer cells; assay: In vitro cytotoxicity MTS assay, lung A549; assay type: cell-based, human; conditions: 72 hours
Method: as §1

[9] = tested on: breast MCF7 cancer cells; assay: In vitro cytotoxicity MTS assay, breast MCF7; assay type: cell-based, human; conditions: 72 hours
Method: as §1

[10] = tested on: hepatocellular HA-22T cancer cells; assay: In vitro cytotoxicity MTS assay, hepatocellular HA-22T; assay type: cell-based, human; conditions: 72 hours
Method: as §1

[11] = tested on: adriamycin-resistant MES-SA/Dx5 subline; assay: In vitro cytotoxicity MTS assay, adriamycin-resistant MES-SA/Dx5; assay type: cell-based, human; conditions: 72 hours
Method: as §1

[12] = tested on: nasopharyngeal HONE1 cancer cells; assay: In vitro cytotoxicity MTS assay, nasopharyngeal HONE1; assay type: cell-based, human; conditions: 72 hours
Method: as §1

[13] = tested on: adriamycin-resistant MCF7/ADR subline; assay: In vitro cytotoxicity MTS assay, adriamycin-resistant MCF7/ADR; assay type: cell-based, human; conditions: 72 hours
Method: as §1

| SMILES | IC50 [1] | Inhibition Score ([2]; final conc. 0.3 μg/ml) | IC50 [3] | IC50 [4] | IC50 [5] | IC50 [6] | IC50 [7] | IC50 [8] | IC50 [9] | IC50 [10] | IC50 [11] | IC50 [12] | IC50 [13] | Inhibition Score ([2]; final conc. 1 μg/ml) |
| --- | --- | --- | --- | --- | --- | --- | --- | --- | --- | --- | --- | --- | --- | --- |
| N#Cc1ccc(Cn2cc(C(=O)C(=O)Nc3ccc4ncccc4c3)c3ccccc32)cc1 [Compound 3] | 266 nM | +++++ | 279 nM | 4710 nM | 9630 nM | 383 nM | 665 nM | 6400 nM | 640 nM | 510 nM | 6090 nM | 174 nM | 665 nM |  |
| N#Cc1ccc(Cn2cc(C(=O)C(=O)Nc3ccc(I)cc3)c3ccccc32)cc1 [Compound 13] | 396 nM | +++++ | 431 nM |  |  | 6310 nM | 846 nM |  | 577 nM | 356 nM |  | 98 nM | 597 nM |  |
| Cc1cc(NC(=O)C(=O)c2cn(Cc3ccc(C#N)cc3)c3ccc(Br)cc23)sn1 [Compound 24] | 5460 nM | − | 1720 nM |  |  | 3590 nM | 5800 nM |  | 7650 nM | 2840 nM |  | 401 nM | 2550 nM |  |
| COc1ccc(NC(=O)C(=O)c2cn(Cc3ccccc3C#N)c3ccccc23)cc1 [Compound 32] | 2250 nM | +++++ | 4850 nM |  |  | 4770 nM | 5650 nM |  | 5180 nM | 1910 nM |  | 928 nM | 5290 nM |  |
| O=C(Nc1cc(-c2ccc(Cl)cc2)no1)C(=O)c1cn(Cc2ccc(Cl)cc2)c2ccccc12 [Compound 38] | 2980 nM | − | 2010 nM |  |  | 3460 nM | 3720 nM |  | 4260 nM | 2240 nM |  | 487 nM | 4080 nM |  |
| Cc1cc(NC(=O)C(=O)c2cn(Cc3ccco3)c3ccccc23)sn1 [Compound 40] | 295 nM | +++++ | 395 nM | 235 nM | 398 nM | 7720 nM | 981 nM | 746 nM | 1160 nM | 1260 nM | 263 nM | 56 nM | 1170 nM |  |
| O=C(Nc1ccc2ncccc2c1)C(=O)c1cn(Cc2ccco2)c2ccccc12 [Compound 42] | 453 nM | +++++ | 634 nM |  |  | 3980 nM | 799 nM |  | 928 nM | 345 nM |  | 296 nM | 527 nM |  |
| Cc1cc(NC(=O)C(=O)c2cn(Cc3cccs3)c3ccccc23)sn1 [Compound 44] |  |  |  |  |  |  |  |  |  |  |  |  |  | +++++ |
| Cc1cc(NC(=O)C(=O)c2cn(Cc3ccsc3)c3ccccc23)sn1 [Compound 45] | 316 nM | +++++ | 465 nM | 306 nM | 824 nM | 1690 nM | 593 nM | 611 nM | 611 nM | 2400 nM | 406 nM | 48 nM | 2350 nM |  |
| Cc1cc(NC(=O)C(=O)c2cn(Cc3ccno3)c3ccccc23)sn1 [Compound 54] | 64 nM | +++++ | 27 nM | 268 nM | 725 nM | > 10000 nM | 397 nM | 1670 nM | 5020 nM | 382 nM | 333 nM | 17 nM | 5410 nM |  |
| Cc1cc(Cn2cc(C(=O)C(=O)Nc3ccc4ncccc4c3)c3ccccc32)on1 [Compound 59] | 294 nM | +++++ | 262 nM |  |  | 613 nM | 658 nM |  | 678 nM | 115 nM |  | 34 nM | 300 nM |  |
| CCc1cc(Cn2cc(C(=O)C(=O)Nc3cc(C)ns3)c3ccccc32)on1 [Compound 63] | 78 nM | +++++ | 118 nM | 312 nM | 636 nM | 2470 nM | 705 nM | 1000 nM | 747 nM | 559 nM | 330 nM | 35 nM | 5070 nM |  |
| Cc1cc(NC(=O)C(=O)c2cn(Cc3cc(C(C)C)no3)c3ccccc23)sn1 [Compound 65] | 324 nM | +++++ | 242 nM |  |  | 720 nM | 609 nM |  | 700 nM | 302 nM |  | 50 nM | 710 nM |  |
| O=C(Nc1ccc2ncccc2c1)C(=O)c1cn(Cc2cscn2)c2ccccc12 [Compound 77] | 721 nM | +++++ | 458 nM |  |  | > 10000 nM | 1500 nM |  | 1320 nM | 469 nM |  | 380 nM | 595 nM |  |
